Where two headings read alike, the source gives them in different places.
What was measured:
[1] = system: H929 multiple myeloma tumour line; test: In vitro cytotoxicity, Microculture Tetrazolium Assay; type: cell-based; conditions: H929 cells, 48 hours exposure, MTT, read-out: IC50 (μM) MTT H929
Description: The cytotoxicity studies were carried out on the H929 multiple myeloma tumour line.
The cells are distributed onto microplates and exposed to the test compounds for 48 hours.

[2] = target: Mcl-1 protein (UniProtKB primary accession number: Q07820) (Homo sapiens, UniProt Q07820); test: Inhibition of Mcl-1 by fluorescence polarisation, Method 1; type: binding; conditions: for IC50: fluorescence polarisation, Method 1, or Method 2, read-out: IC50 (M) Mcl-1 FP
Mcl-1 protein, sequence (Q07820 whole entry): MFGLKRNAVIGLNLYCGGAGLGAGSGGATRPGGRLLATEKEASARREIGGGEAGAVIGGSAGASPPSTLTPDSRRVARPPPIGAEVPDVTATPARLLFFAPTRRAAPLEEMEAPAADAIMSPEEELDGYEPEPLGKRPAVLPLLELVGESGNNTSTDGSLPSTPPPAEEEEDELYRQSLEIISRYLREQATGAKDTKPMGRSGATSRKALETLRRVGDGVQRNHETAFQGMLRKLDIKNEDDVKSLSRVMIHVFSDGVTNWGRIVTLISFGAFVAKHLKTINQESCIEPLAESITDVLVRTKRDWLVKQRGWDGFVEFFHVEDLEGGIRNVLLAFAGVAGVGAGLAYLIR
Outline: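 FP readout of relative binding potency. Mcl-1 5 nM final, fluorescein-labelled ligand 1 nM final; buffer 10 mM HEPES, 150 mM NaCl, 0.05% Tween 20, pH 7.4; 11-pt dilution series, 5% DMSO final.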

Row | IC50 [2] [M] | percentage fluorescence polarisation inhibition, Mcl-1 FP ([2]; partial inhibitors, @ 10 uM test compound) [% @ 10 uM] | Structure (SMILES) | IC50 ([1]; Homo sapiens, NCI-H929, 48 h) [µM] | IC50 [1] [µM]
1 | 4e-09 | – | CCCCn1nccc1COc1ccccc1CC(Oc1ncnc2sc(-c3ccc(OCCN4CCOCC4)cc3)c(-c3ccc(OCCN4CCN(C)CC4)c(Cl)c3C)c12)C(=O)O [Example 616, (2R)-3-{2-[(1-butyl-1H-pyrazol-5-yl)methoxy]phenyl}-2-[((5Sa)-5-{3-chloro-2-methyl-4-[2-(4-methylpiperazin-1-yl)ethoxy]phenyl}-6-{4-[2-(morpholin-4-yl)ethoxy]phenyl}thieno[2,3-d]pyrimidin-4-yl)oxy]propanoic acid] | 0.07 | –
2 | 5.4e-09 | – | CCCCn1nccc1COc1ccccc1CC(Oc1ncnc2sc(CCCOC)c(-c3ccc(OCCN4CCN(C)CC4)c(Cl)c3C)c12)C(=O)O [Example 617, (2R)-3-{2-[(1-butyl-1H-pyrazol-5-yl)methoxy]phenyl}-2-{[(5Sa)-5-{3-chloro-2-methyl-4-[2-(4-methylpiperazin-1-yl)ethoxy]phenyl}-6-(3-methoxypropyl)thieno[2,3-d]pyrimidin-4-yl]oxy}propanoic acid] | 0.277 | –
3 | 7e-09 | – | CCCCn1nccc1COc1ccccc1CC(Oc1ncnc2sc(-c3ccc(N4CCOCC4)nc3)c(-c3ccc(OCCN4CCN(C)CC4)c(Cl)c3C)c12)C(=O)O [Example 619, (2R)-3-{2-[(1-butyl-1H-pyrazol-5-yl)methoxy]phenyl}-2-[((5Sa)-5-{3-chloro-2-methyl-4-[2-(4-methylpiperazin-1-yl)ethoxy]phenyl}-6-[6-(morpholin-4-yl)pyridin-3-yl]thieno[2,3-d]pyrimidin-4-yl)oxy]propanoic acid] | 0.336 | –
4 | 5.9e-09 | – | CCCCn1nccc1COc1ccccc1CC(Oc1ncnc2sc(-c3ccc(NCCOC)nc3)c(-c3ccc(OCCN4CCN(C)CC4)c(Cl)c3C)c12)C(=O)O [Example 620, (2R)-3-{2-[(1-butyl-1H-pyrazol-5-yl)methoxy]phenyl}-2-[((5Sa)-5-{3-chloro-2-methyl-4-[2-(4-methylpiperazin-1-yl)ethoxy]phenyl}-6-{6-[(2-methoxyethyl)amino]pyridin-3-yl}thieno[2,3-d]pyrimidin-4-yl)oxy]propanoic acid] | 0.532 | –
5 | 5.3e-09 | – | CCCCn1nccc1COc1ccccc1CC(Oc1ncnc2sc(-c3ccc(OCCN4CCOCC4)nc3)c(-c3ccc(OCCN4CCN(C)CC4)c(Cl)c3C)c12)C(=O)O [Example 621, (2R)-3-{2-[(1-butyl-1H-pyrazol-5-yl)methoxy]phenyl}-2-[((5Sa)-5-{3-chloro-2-methyl-4-[2-(4-methylpiperazin-1-yl)ethoxy]phenyl}-6-{6-[2-(morpholin-4-yl)ethoxy]pyridin-3-yl}thieno[2,3-d]pyrimidin-4-yl)oxy]propanoic acid] | 0.095 | –
6 | 1.1e-08 | – | CCCCn1nccc1COc1ccccc1CC(Oc1ncnc2sc(-c3ccc(OCCOC)nc3)c(-c3ccc(OCCN4CCN(C)CC4)c(Cl)c3C)c12)C(=O)O [Example 622, (2R)-3-{2-[(1-butyl-1H-pyrazol-5-yl)methoxy]phenyl}-2-[((5Sa)-5-{3-chloro-2-methyl-4-[2-(4-methylpiperazin-1-yl)ethoxy]phenyl}-6-[6-(2-methoxyethoxy)pyridin-3-yl]thieno[2,3-d]pyrimidin-4-yl)oxy]propanoic acid] | 0.109 | –
7 | – | 74.85 | CCOC(=O)[C@@H](Cc1ccccc1OCc1ccnc(OC)n1)Oc1ncnc2sc(-c3ccc(F)o3)c(-c3ccc(OCCN4CCN(C)CC4)c(Cl)c3C)c12 [Example 625, ethyl (2R)-2-{[(5Sa)-5-{3-chloro-2-methyl-4-[2-(4-methylpiperazin-1-yl)ethoxy]phenyl}-6-(5-fluorofuran-2-yl)thieno[2,3-d]pyrimidin-4-yl]oxy}-3-{2-[(2-methoxypyrimidin-4-yl)methoxy]phenyl}propanoate] | – | 0.62
8 | 6.6e-07 | – | COc1ccccc1CC(Oc1ncnc2sc(-c3ccc(F)cc3)c(-c3ccc(OCCN4CCN(C)CC4)c(Cl)c3C)c12)C(=O)OCOC(=O)C(C)(C)C [Example 643, {[(2R)-2-{[(5Sa)-5-{3-chloro-2-methyl-4-[2-(4-methylpiperazin-1-yl)ethoxy]phenyl}-6-(4-fluorophenyl)thieno[2,3-d]pyrimidin-4-yl]oxy}-3-(2-methoxyphenyl)propanoyl]oxy}methyl 2,2-dimethylpropanoate] | 0.303 | –
9 | 3.7e-07 | – | COc1ccccc1CC(Oc1ncnc2sc(-c3ccc(F)cc3)c(-c3ccc(OCCN4CCN(C)CC4)c(Cl)c3C)c12)C(=O)OCc1oc(=O)oc1C [Example 644, (5-methyl-2-oxo-1,3-dioxol-4-yl)methyl (2R)-2-{[(5Sa)-5-{3-chloro-2-methyl-4-[2-(4-methylpiperazin-1-yl)ethoxy]phenyl}-6-(4-fluorophenyl)thieno[2,3-d]pyrimidin-4-yl]oxy}-3-(2-methoxyphenyl)propanoate] | 0.248 | –
10 | 2.1e-08 | – | COc1ccccc1CC(Oc1ncnc2sc(-c3ccc(F)cc3)c(-c3ccc(OCCN4CCN(C)CC4)c(Br)c3C)c12)C(=O)O [Example 646, (2R)-2-{[(5Sa)-5-{3-bromo-2-methyl-4-[2-(4-methylpiperazin-1-yl)ethoxy]phenyl}-6-(4-fluorophenyl)thieno[2,3-d]pyrimidin-4-yl]oxy}-3-(2-methoxyphenyl)propanoic acid] | 0.298 | –
11 | 2.3e-08 | – | COc1ccccc1CC(Oc1ncnc2sc(-c3ccc(F)cc3)c(-c3ccc(OCCN4CCN(C)CC4)c(Cl)c3Cl)c12)C(=O)O [Example 647, (2R)-2-{[(5Sa)-5-{2,3-dichloro-4-[2-(4-methylpiperazin-1-yl)ethoxy]phenyl}-6-(4-fluorophenyl)thieno[2,3-d]pyrimidin-4-yl]oxy}-3-(2-methoxyphenyl)propanoic acid] | 0.498 | –
12 | 2.3e-08 | – | Cc1c(-c2c(-c3ccc(F)cc3)sc3ncnc(OC(Cc4ccccc4OCC4CCCO4)C(=O)O)c23)ccc(OCC2CCN(C)C2)c1Cl [Example 649, (2R)-2-{[(5Sa)-5-{3-chloro-2-methyl-4-[(1-methylpyrrolidin-3-yl)methoxy]phenyl}-6-(4-fluorophenyl)thieno[2,3-d]pyrimidin-4-yl]oxy}-3-{2-[(2R)-tetrahydrofuran-2-ylmethoxy]phenyl}propanoic acid] | 0.341 | –
13 | 6.8e-09 | – | COc1nccc(COc2ccccc2CC(Oc2ncnc3sc(-c4ccc(F)cc4)c(-c4cnc(OCCN5CCN(C)CC5)c(Cl)c4C)c23)C(=O)O)n1 [Example 651, (2R)-2-{[(5Ra)-5-{5-chloro-4-methyl-6-[2-(4-methylpiperazin-1-yl)ethoxy]pyridin-3-yl}-6-(4-fluorophenyl)thieno[2,3-d]pyrimidin-4-yl]oxy}-3-{2-[(2-methoxypyrimidin-4-yl)methoxy]phenyl}propanoic acid] | 0.282 | –
14 | 4.7e-09 | – | CCn1nccc1COc1ccccc1CC(Oc1ncnc2sc(-c3ccc(F)cc3)c(-c3cnc(OCCN4CCN(C)CC4)c(Cl)c3C)c12)C(=O)O [Example 652, (2R)-2-{[(5Ra)-5-{5-chloro-4-methyl-6-[2-(4-methylpiperazin-1-yl)ethoxy]pyridin-3-yl}-6-(4-fluorophenyl)thieno[2,3-d]pyrimidin-4-yl]oxy}-3-{2-[(1-ethyl-1H-pyrazol-5-yl)methoxy]phenyl}propanoic acid] | 0.059 | –
15 | 6.1e-08 | – | COCC#Cc1ccccc1CC(Oc1ncnc2sc(-c3ccc(F)cc3)c(-c3ccc(OCCN4CCN(C)CC4)c(Cl)c3C)c12)C(=O)O [Example 656, (2R)-2-{[(5Sa)-5-{3-chloro-2-methyl-4-[2-(4-methylpiperazin-1-yl)ethoxy]phenyl}-6-(4-fluorophenyl)thieno[2,3-d]pyrimidin-4-yl]oxy}-3-[2-(3-methoxyprop-1-yn-1-yl)phenyl]propanoic acid] | 0.523 | –
16 | 1.1e-08 | – | Cc1c(-c2c(-c3ccco3)sc3ncnc(OC(Cc4ccccc4OCc4ccnn4C)C(=O)O)c23)ccc(OCCN(C)C)c1Cl [Example 668, (2R)-2-{[(5Sa)-5-{3-chloro-4-[2-(dimethylamino)ethoxy]-2-methylphenyl}-6-(furan-2-yl)thieno[2,3-d]pyrimidin-4-yl]oxy}-3-{2-[(1-methyl-1H-pyrazol-5-yl)methoxy]phenyl}propanoic acid] | 0.13 | –
17 | 4.9e-09 | – | CCN1CCN(CCOc2ccc(-c3c(-c4ccco4)sc4ncnc(OC(Cc5ccccc5OCCOC)C(=O)O)c34)c(C)c2Cl)CC1 [Example 669, (2R)-2-{[(5Sa)-5-{3-chloro-4-[2-(4-ethylpiperazin-1-yl)ethoxy]-2-methylphenyl}-6-(furan-2-yl)thieno[2,3-d]pyrimidin-4-yl]oxy}-3-[2-(2-methoxyethoxy)phenyl]propanoic acid] | 0.108 | –
18 | 3.2e-09 | – | CCN1CCN(CCOc2ccc(-c3c(-c4ccco4)sc4ncnc(OC(Cc5ccccc5OCc5ccnc(OC)n5)C(=O)O)c34)c(C)c2Cl)CC1 [Example 670, (2R)-2-{[(5Sa)-5-{3-chloro-4-[2-(4-ethylpiperazin-1-yl)ethoxy]-2-methylphenyl}-6-(furan-2-yl)thieno[2,3-d]pyrimidin-4-yl]oxy}-3-{2-[(2-methoxypyrimidin-4-yl)methoxy]phenyl}propanoic acid] | 0.027 | –
19 | 6.9e-09 | – | COCCOc1ccccc1CC(Oc1ncnc2sc(-c3ccco3)c(-c3ccc(OCCN4CCN(C(C)C)CC4)c(Cl)c3C)c12)C(=O)O [Example 671, (2R)-2-{[(5Sa)-5-(3-chloro-2-methyl-4-{2-[4-(propan-2-yl)piperazin-1-yl]ethoxy}phenyl)-6-(furan-2-yl)thieno[2,3-d]pyrimidin-4-yl]oxy}-3-[2-(2-methoxyethoxy)phenyl]propanoic acid] | 0.107 | –
